Reference: ChEMBL document CHEMBL1201862, “PubChem BioAssay data set” (2004)
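Where inhibition never reached the appropriate level, the endpoint shown equals the highest concentration tested. Otherwise, values were interpolated linearly from a five-concentration, 48-hour dose response in 96-well plates. GI50 = concentration required for 50% inhibition of growth.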 Calls of active or inactive are those of the source. Rule as the data show it: active = GI50 up to about 1.1 µM and inactive = higher.

Assays:
Assay in all cases: NCI anticancer screen, dose series, 48 h
SNB-19 = test system: SNB-19
UO-31 = test system: UO-31
SN12C = test system: SN12C
RPMI-8226 = test system: RPMI-8226
COLO 205 = test system: COLO 205
SK-MEL-5 = test system: SK-MEL-5
NCI-H460 = test system: NCI-H460
OVCAR-5 = test system: OVCAR-5
HCT-116 = test system: HCT-116
UACC-257 = test system: UACC-257
HCC 2998 = test system: HCC 2998
SF-268 = test system: SF-268
SNB-75 = test system: SNB-75
T47D = test system: T47D
NCI/ADR-RES = test system: NCI/ADR-RES
ACHN = test system: ACHN
RXF 393 = test system: RXF 393
SR = test system: SR
TK-10 = test system: TK-10
HOP-62 = test system: HOP-62

Measured: GI50

C=CCOc1cc(NC(=S)c2ccoc2C)ccc1OC
inactive: SNB-19 > 100 µM | UO-31 > 100 µM | SN12C > 100 µM | RPMI-8226 > 100 µM | COLO 205 > 100 µM | SK-MEL-5 > 100 µM | NCI-H460 > 100 µM | OVCAR-5 > 100 µM | HCT-116 > 100 µM | UACC-257 > 100 µM | HCC 2998 > 100 µM | SF-268 > 100 µM | SNB-75 24.1 µM | T47D > 100 µM | NCI/ADR-RES > 100 µM | ACHN > 100 µM

C/C=C/C#CC#C/C=C/C=C/C(O)CCO (stereo not given)
inactive: SNB-19 > 23.1 µM | UO-31 > 23.1 µM | SN12C > 23.1 µM | RPMI-8226 > 23.1 µM | RXF 393 > 23.1 µM | SR > 23.1 µM | COLO 205 > 23.1 µM | SK-MEL-5 > 23.1 µM | NCI-H460 > 23.1 µM | TK-10 > 23.1 µM | OVCAR-5 > 23.1 µM | HCT-116 > 23.1 µM | UACC-257 > 23.1 µM | HCC 2998 > 23.1 µM | SF-268 > 23.1 µM | SNB-75 17.7 µM | HOP-62 > 23.1 µM | ACHN > 23.1 µM

CC(C)(C)OC(=O)NC(CCCCNC(=O)OCc1ccccc1)C(=O)NC(CCCCNC(=O)OCc1ccccc1)C(=O)ON1C(=O)CCC1=O (stereo not given)
inactive: SNB-19 > 100 µM | UO-31 > 100 µM | SN12C > 100 µM | RPMI-8226 > 100 µM | RXF 393 > 100 µM | SR > 100 µM | COLO 205 > 100 µM | SK-MEL-5 > 100 µM | TK-10 > 100 µM | OVCAR-5 > 100 µM | HCT-116 > 100 µM | UACC-257 > 100 µM | HCC 2998 > 100 µM | SNB-75 > 100 µM | T47D > 100 µM | HOP-62 > 100 µM

COc1cccc(OC)c1NC(=O)C(=O)Nn1c(NNC(=O)c2ccncc2)nc2ccccc2c1=O
inactive: SNB-19 > 100 µM | UO-31 > 100 µM | SN12C > 100 µM | RPMI-8226 > 100 µM | RXF 393 > 100 µM | SK-MEL-5 > 100 µM | NCI-H460 > 100 µM | TK-10 > 100 µM | OVCAR-5 > 100 µM | HCT-116 > 100 µM | UACC-257 > 100 µM | HCC 2998 > 100 µM | SF-268 > 100 µM | SNB-75 > 100 µM | T47D > 100 µM | NCI/ADR-RES > 100 µM | HOP-62 > 100 µM | ACHN > 100 µM

COc1cc(C(=O)C/C(CCC(=O)Nc2ccc(Cl)cc2Cl)=N/Nc2nnc(C)n2N)ccc1O
inactive: SNB-19 > 100 µM | UO-31 > 100 µM | SN12C > 100 µM | RPMI-8226 > 100 µM | RXF 393 > 100 µM | SR > 100 µM | COLO 205 > 100 µM | SK-MEL-5 > 100 µM | NCI-H460 > 100 µM | TK-10 > 100 µM | OVCAR-5 > 100 µM | HCT-116 > 100 µM | UACC-257 > 100 µM | HCC 2998 > 100 µM | SF-268 > 100 µM | SNB-75 > 100 µM | HOP-62 > 100 µM | ACHN > 100 µM

CCCNC(=O)N(C)C(=O)N1N=C(c2ccccc2)C1c1ccccc1 (stereo not given)
inactive: SNB-19 > 100 µM | UO-31 50.4 µM | SN12C 37 µM | RPMI-8226 38.2 µM | RXF 393 > 100 µM | COLO 205 54.2 µM | SK-MEL-5 87.3 µM | TK-10 > 100 µM | HCT-116 51.8 µM | UACC-257 82.6 µM | HCC 2998 60 µM | SNB-75 54.3 µM | T47D > 100 µM | NCI/ADR-RES > 100 µM | HOP-62 > 100 µM | ACHN 90.6 µM

Nc1cnc(Nc2cccc3ccccc23)o1
inactive: SNB-19 > 10 µM | UO-31 > 10 µM | SN12C > 10 µM | RXF 393 > 10 µM | COLO 205 > 10 µM | SK-MEL-5 > 10 µM | NCI-H460 > 10 µM | TK-10 > 10 µM | HCT-116 > 10 µM | UACC-257 > 10 µM | HCC 2998 > 10 µM | SF-268 > 10 µM | SNB-75 > 10 µM | T47D > 10 µM | NCI/ADR-RES > 10 µM | HOP-62 > 10 µM | ACHN > 10 µM

CC12CCC([C@H](N3CCOCC3)/C1=N\OCCN1CCCC1)C2(C)C (stereo not given in full)
inactive: SNB-19 > 100 µM | UO-31 > 100 µM | SN12C > 100 µM | RPMI-8226 > 100 µM | RXF 393 > 100 µM | SR > 100 µM | COLO 205 > 100 µM | SK-MEL-5 > 100 µM | NCI-H460 > 100 µM | TK-10 > 100 µM | OVCAR-5 > 100 µM | HCT-116 > 100 µM | UACC-257 > 100 µM | HCC 2998 > 100 µM | SF-268 > 100 µM | SNB-75 > 100 µM | HOP-62 > 100 µM | ACHN > 100 µM

O=C1C=CC2(C=C1)CCC(=O)O2
inactive: SNB-19 17.5 µM | UO-31 15.1 µM | SN12C 16.1 µM | RPMI-8226 5.89 µM | RXF 393 14.6 µM | SR 6.38 µM | COLO 205 11 µM | SK-MEL-5 16.3 µM | NCI-H460 14.3 µM | TK-10 11.9 µM | OVCAR-5 22.7 µM | HCT-116 14.8 µM | UACC-257 18.7 µM | HCC 2998 14.2 µM | SF-268 12.1 µM | SNB-75 19 µM | NCI/ADR-RES 32.9 µM | HOP-62 20.2 µM | ACHN 15.2 µM

O=C(CC(NC(=O)OCc1ccccc1)C(=O)NC1Cc2ccccc2C1=O)OCc1ccccc1 (stereo not given)
inactive: SNB-19 > 100 µM | UO-31 > 100 µM | SN12C > 100 µM | RPMI-8226 > 100 µM | RXF 393 > 100 µM | SR > 100 µM | SK-MEL-5 > 100 µM | NCI-H460 > 100 µM | TK-10 > 100 µM | OVCAR-5 > 100 µM | UACC-257 86.5 µM | HCC 2998 > 100 µM | SF-268 > 100 µM | SNB-75 59.3 µM | NCI/ADR-RES > 100 µM | HOP-62 > 100 µM | ACHN > 100 µM

N#CC(c1cc(Cl)ncn1)c1nc2cc(C(F)(F)F)ccc2s1 (stereo not given)
inactive: SNB-19 3.83 µM | UO-31 4.97 µM | SN12C 13.7 µM | RPMI-8226 3.78 µM | RXF 393 4.33 µM | COLO 205 3.35 µM | SK-MEL-5 9.57 µM | NCI-H460 4.78 µM | TK-10 6.15 µM | OVCAR-5 3.78 µM | HCT-116 2.97 µM | UACC-257 4.24 µM | SF-268 3.66 µM | SNB-75 5.79 µM | T47D 4.29 µM | NCI/ADR-RES 3.08 µM | HOP-62 13.8 µM | ACHN 13.6 µM

CCOC(=O)c1sc2c(c1OC(=O)c1ccccc1)c(=O)n(-c1ccccc1)c(=S)n2-c1ccccc1
inactive: SNB-19 40.3 µM | SN12C > 100 µM | RPMI-8226 40.2 µM | RXF 393 43.5 µM | COLO 205 > 100 µM | SK-MEL-5 20.7 µM | NCI-H460 19.3 µM | TK-10 70.1 µM | OVCAR-5 68.7 µM | HCT-116 16.2 µM | UACC-257 87.3 µM | HCC 2998 25.1 µM | SF-268 38.5 µM | T47D 63.7 µM | NCI/ADR-RES 19.1 µM | HOP-62 22.9 µM | ACHN 32 µM

NC(=O)N/N=C(/c1nc2ccc([N+](=O)[O-])cc2nc1O)C(O)c1ccco1 (stereo not given)
inactive: SNB-19 > 100 µM | UO-31 53.6 µM | SN12C 17.4 µM | RPMI-8226 43 µM | RXF 393 > 100 µM | SR 57.1 µM | COLO 205 40 µM | SK-MEL-5 30 µM | NCI-H460 59.6 µM | TK-10 > 100 µM | OVCAR-5 > 100 µM | HCT-116 > 100 µM | UACC-257 > 100 µM | HCC 2998 31 µM | SF-268 63.4 µM | SNB-75 97.9 µM | HOP-62 35.3 µM | ACHN 28.4 µM

Cc1ccc(S(=O)(=O)Nn2c(S)c(C#N)c(-c3ccc([N+](=O)[O-])cc3)c(C#N)c2=O)cc1
inactive: SN12C 19.1 µM | RPMI-8226 16.4 µM | RXF 393 39 µM | COLO 205 29.2 µM | SK-MEL-5 12 µM | NCI-H460 31 µM | TK-10 65.3 µM | OVCAR-5 72.9 µM | HCT-116 16.9 µM | UACC-257 40.8 µM | HCC 2998 31.6 µM | SF-268 30.7 µM | SNB-75 56.5 µM | NCI/ADR-RES 33 µM | HOP-62 98.2 µM | ACHN 51.5 µM

CC1=C(CO)C(=O)O[C@@H]([C@@H](C)[C@H]2CC[C@H]3[C@@H]4C[C@@H](O)[C@@]5(O)CC=CC(=O)[C@]5(C)[C@H]4CC[C@]23C)C1 [JABOROSALACTONE D]
inactive: SNB-19 46.5 µM | SN12C 42.4 µM | RPMI-8226 24.9 µM | RXF 393 22.3 µM | COLO 205 43.1 µM | SK-MEL-5 32.6 µM | NCI-H460 19.1 µM | TK-10 > 100 µM | OVCAR-5 > 100 µM | HCT-116 20.5 µM | UACC-257 > 100 µM | HCC 2998 30.3 µM | SF-268 92.3 µM | SNB-75 25.9 µM | T47D 58.1 µM | NCI/ADR-RES 21.1 µM | HOP-62 64 µM | ACHN 26.8 µM
